Assay results reported in article PMC7355937, “Structure-Based Discovery of Dual-Target Hits for Acetylcholinesterase and the α7 Nicotinic Acetylcholine Receptors: In Silico Studies and In Vitro Confirmation” (Molecules, 2020).
“And” between values parts separate entries of the source, which are not always exact repeats. Identical values can stand only once. Like-named read-outs stand apart in the source and are kept apart here.

Assays:
human α7 nAChR [1] = molecular target: T1, human α7 nAChR (Homo sapiens, UniProt P36544); assay: α7 nAChR direct activation (agonist test), two-electrode voltage-clamp electrophysiology in Xenopus oocytes; format: cell-based; settings: for activation at 200 µM: read-out: α7 nAChR %Activation
T1 construct: expressed in transfected cells; host or cells: Xenopus laevis oocytes (cRNA injection)
T1 sequence (P36544 23-502): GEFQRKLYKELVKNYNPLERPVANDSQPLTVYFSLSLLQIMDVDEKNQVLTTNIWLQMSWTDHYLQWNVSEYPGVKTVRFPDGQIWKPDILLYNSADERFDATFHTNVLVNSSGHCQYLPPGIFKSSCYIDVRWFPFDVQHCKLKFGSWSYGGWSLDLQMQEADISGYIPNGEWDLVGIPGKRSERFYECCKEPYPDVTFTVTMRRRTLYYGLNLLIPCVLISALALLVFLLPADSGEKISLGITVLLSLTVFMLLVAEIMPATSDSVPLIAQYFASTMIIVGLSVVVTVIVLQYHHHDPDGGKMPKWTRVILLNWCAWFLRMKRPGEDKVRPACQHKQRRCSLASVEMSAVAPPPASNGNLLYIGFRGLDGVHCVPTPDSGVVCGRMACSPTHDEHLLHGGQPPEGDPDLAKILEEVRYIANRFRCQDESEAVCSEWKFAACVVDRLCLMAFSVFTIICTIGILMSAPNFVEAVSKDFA
Procedure: (§1) Compounds were tested for direct activation of the α7 nAChR in a 0.2–200 µM concentration range. Compounds displaying less than 1% direct activation were further evaluated at 100 µM for their ability to alter currents evoked by 30 µM ACh.
(§2) Xenopus laevis oocytes were obtained as described previously, briefly, ovary lobes were removed by surgical incision, sliced into small pieces and defolliculated by collagenase treatment. […] Stage V and VI oocytes were injected with a total of ~25 ng of cRNA encoding human α7 nAChR with RIC3 (in 5:1 ratio), a protein enhancing the expression of the receptor. Injected oocytes were incubated for 3–5 days at 18 °C in a saline solution (96 mM NaCl, 2 mM KCl, 1 mM MgCl2, 1.8 mM CaCl2, 5 mM HEPES (hemisodium, pH 7.4)) supplemented with 2.5 mM sodium pyruvate, 0.5 mM theophylline, and 50 µM gentamycin.
(§3) Electrophysiological recordings from Xenopus laevis oocytes were performed using the two-electrode voltage-clamp technique as described previously. Briefly, oocytes were placed in a custom-built recording chamber and continuously perfused with a saline solution. The saline solution contained 96 mM NaCl, 2 mM KCl, 1 mM MgCl2, 1.8 mM CaCl2, 5 mM HEPES (hemisodium, pH 7.4). Pipettes were backfilled with 3 M KCl and open-pipette resistances ranged from 0.3 to 1.5 MΩ when submerged in the saline solution. Oocytes were voltage clamped at a holding potential of −60 mV using an Axon Geneclamp 500B amplifier (Molecular Devices, LLC, San Jose, CA, USA). Rapid solution exchange in the oocyte vicinity (order of a few seconds) was ensured by application through a 1.5 mm diameter capillary tube placed approximately 2 mm from the oocyte as described previously. The solution flow rate through the capillary was 2.0 mL/min. […] Thereafter, test compounds in increasing concentration were applied (25 s), the maximal tested concentration was 200 µM. A wash period of at least 2 min was kept between each application. […] In these experiments, 10 and 100 µM concentration of a test compound was co-applied with 30 µM ACh. Peak current amplitudes were normalized with respect to the amplitude of current elicited by 3 mM or 30 µM ACh for the agonist and antagonist test, respectively. All experiments were conducted at least in triplicate.
(§4) Data analysis was performed as reported previously. […] During analysis, traces were baseline subtracted and responses to individual applications quantified as peak-current amplitudes. Statistical calculations were performed using GraphPad Prism 7 (GraphPad Software, GraphPad, San Diego, CA, USA). Activation of the α7 nAChR was calculated as a percentage of Emax response to ACh. For evaluation of the inhibitory activity, the percentage of remaining peak-current amplitudes relative to that of the AChcontrol (EC20) application was calculated. AChE inhibition data were analyzed using GraphPad Prism 7. Absorption readings from the AChE inhibition assay were plotted versus time and linear regression was performed. […] Data were fitted with the slope set to 1 and remaining current amplitude at infinitely high compound concentrations set to 0.

human α7 nAChR [2] = molecular target: T1, human α7 nAChR; assay: α7 nAChR inhibition of ACh-evoked currents (antagonist test), two-electrode voltage-clamp electrophysiology in Xenopus oocytes; format: cell-based; settings: -60 mV
Procedure: as §1, §2, §3, §4

human recombinant AChE = molecular target: T2, human recombinant AChE (Homo sapiens, UniProt P22303); assay: biochemical; settings: for inhibition at 200 µM: compound soluble in MeOH; for AChE %Inhibition of supernatant (MeOH): poorly soluble compound, methanol supernatant tested, nominal 200 µM
T2 construct: purchased Sigma-Aldrich Co. LLC C1682
T2 sequence (P22303 32-614): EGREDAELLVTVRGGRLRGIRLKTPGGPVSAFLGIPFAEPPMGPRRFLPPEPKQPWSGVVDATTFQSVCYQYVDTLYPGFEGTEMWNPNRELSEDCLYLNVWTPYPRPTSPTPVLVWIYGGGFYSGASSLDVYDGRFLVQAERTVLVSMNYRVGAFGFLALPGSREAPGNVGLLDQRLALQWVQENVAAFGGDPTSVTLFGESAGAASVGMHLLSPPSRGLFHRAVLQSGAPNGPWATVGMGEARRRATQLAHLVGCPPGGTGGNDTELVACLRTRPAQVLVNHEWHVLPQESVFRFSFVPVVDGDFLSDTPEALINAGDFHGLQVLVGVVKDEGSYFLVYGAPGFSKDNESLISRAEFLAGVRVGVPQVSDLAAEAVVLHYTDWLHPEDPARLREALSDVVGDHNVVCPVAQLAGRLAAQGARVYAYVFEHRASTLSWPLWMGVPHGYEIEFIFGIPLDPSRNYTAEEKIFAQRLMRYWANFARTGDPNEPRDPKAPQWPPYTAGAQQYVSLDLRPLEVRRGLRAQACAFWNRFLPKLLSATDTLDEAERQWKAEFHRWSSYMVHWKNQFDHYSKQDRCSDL
Procedure: For five poorly soluble compounds, the methanol supernatants were tested. Ellman’s colorimetric analysis is based on the breakdown of acetylthiocholine (ATCI) by AChE to thiocholine and acetic acid. Ellman’s reagent in turn reacts with the thiol group of thiocholine resulting in a yellow color indicating the extent of enzymatic activity. […] In vitro AChE inhibitory activity was studied using the colorimetric method of Ellman using human recombinant AChE enzyme. To a 96-well microplate, test solutions were applied along with 1 mg/mL bovine serum albumin, 0.5 mM 5,5-dithiobis-(2-nitro-benzoic acid), and 0.5 mM acetylthiocholine iodide. […] Experiments were conducted in triplicate.
as §4

α7 nAChR = settings: cited from earlier work
[3] = 200 µM, normalized to 3 mM ACh response, -60 mV
[4] = 100 µM compound co-applied with 30 µM ACh, read-out: α7 nAChR %Inhibition
[5] = five to eight concentrations, read-out: AChE IC50

C[C@H]1CCCN(Cc2ccc(NC(=O)CCc3ccc(C#N)cc3)cc2)C1 [Compound 20]
activation at 200 µM (human α7 nAChR [1]; [3]): 0.3% | inhibition at 100 µM (human α7 nAChR [2]; [4]): 94.3% | inhibition at 200 µM (human recombinant AChE): 86% | IC50 (human recombinant AChE; [5]): 33.5 µM

O=C(Nc1nc(CN2CCCCC2)cs1)c1cc(O)nc2ccccc12 [Ýmir-16 (21)]
activation at 200 µM (human α7 nAChR [1]; [3]): 0.3% | α7 nAChR %Inhibition (human α7 nAChR [2]; 100 µM compound co-applied with 30 µM ACh): 97.3 ± 1% | inhibition at 100 µM (human α7 nAChR [2]; read-out: α7 nAChR %Inhibition, 100 µM compound co-applied with 30 µM ACh): 97% | inhibition at 200 µM (human recombinant AChE): 87.7% | IC50 (human recombinant AChE; [5]): 7.76 µM | IC50 (human recombinant AChE; read-out: AChE pIC50 ± SEM (converted)): 7.94 µM

c1cc(-c2ccc(-c3ccc(CN4CCCC4)cn3)cc2)n[nH]1 [Compound 8]
activation at 200 µM (human α7 nAChR [1]; [3]): 0.3% | inhibition at 100 µM (human α7 nAChR [2]; [4]): 59% | AChE %Inhibition of supernatant (MeOH) (human recombinant AChE): 100%

Cc1cccc(NC(=O)c2ccc(CN3CCCCCC3)cc2)c1C [Compound 13]
activation at 200 µM (human α7 nAChR [1]; [3]): 0.7% | inhibition at 100 µM (human α7 nAChR [2]; [4]): 68% | inhibition at 200 µM (human recombinant AChE): 82.5% | IC50 (human recombinant AChE; [5]): 30.2 µM

Nc1nc(-c2ccsc2)cc(N(Cc2ccccn2)Cc2ccccn2)n1 [Compound 44, N4,N4-bis[(pyridin-2-yl)methyl]-6-(thiophen-3-yl)pyrimidine-2,4-diamine]
α7-pEC50 (α7 nAChR): 6.3

CC(=O)c1cccc(NC(=O)c2ccc(CN3CCCCC3)cc2)c1 [Compound 14]
activation at 200 µM (human α7 nAChR [1]; [3]): 0.3% | inhibition at 100 µM (human α7 nAChR [2]; [4]): 60% | inhibition at 200 µM (human recombinant AChE): 100% | IC50 (human recombinant AChE; [5]): 1.1 µM

Cc1cc(F)ccc1S(=O)(=O)NCc1ccc(CN2CCCC2)cc1 [Ýmir-14 (19)]
activation at 200 µM (human α7 nAChR [1]; [3]): 0.7% | inhibition at 100 µM (human α7 nAChR [2]; [4]): 96% | inhibition at 200 µM (human recombinant AChE): 100% | IC50 (human recombinant AChE; [5]): 1.32 µM

CN(C)Cc1ccc(-c2ccc(N(C)C)nc2)nc1 [Compound 6]
activation at 200 µM (human α7 nAChR [1]; [3]): 0.4% | inhibition at 100 µM (human α7 nAChR [2]; [4]): 47.2% | inhibition at 200 µM (human recombinant AChE): 76.1% | IC50 (human recombinant AChE; [5]): 58.5 µM

O=C(Nc1cccc(CN2CCCC2)c1)C1=Cc2cc(Cl)ccc2OC1 [Compound 16]
activation at 200 µM (human α7 nAChR [1]; [3]): 1% | inhibition at 100 µM (human α7 nAChR [2]; [4]): 90.7% | AChE %Inhibition of supernatant (MeOH) (human recombinant AChE): 100%

O[C@@H]1c2ccc(-c3cccnc3)cc2OC[C@H]1N1CCCC1 [Compound 9]
activation at 200 µM (human α7 nAChR [1]; [3]): 1% | inhibition at 100 µM (human α7 nAChR [2]; [4]): 66.7% | AChE %Inhibition of supernatant (MeOH) (human recombinant AChE): 45.9 ± 3.8%

O=C(Nc1cccc(CN2CCCCC2)c1)c1ccccc1F [Compound 10]
activation at 200 µM (human α7 nAChR [1]; [3]): 0.3% | inhibition at 100 µM (human α7 nAChR [2]; [4]): 85% | inhibition at 200 µM (human recombinant AChE): 90.8% | IC50 (human recombinant AChE; [5]): 11.3 µM

CN(C(=O)Cc1ccsc1)[C@H]1CCC[C@H](N2CCCC2)[C@H]1O [Compound 17]
inhibition at 200 µM (human recombinant AChE): 22.9%

Cc1ccc2cc(NC(=O)NCCN3CCCC3)ccc2n1 [Ýmir-10 (15)]
α7 nAChR %Activation (human α7 nAChR [1]; [3]): 2.3% and 2.3 ± 0.4% | activation at 200 µM (human α7 nAChR [1]): 2.3 ± 0.4% | inhibition at 200 µM (human recombinant AChE): 66.6% | IC50 (human recombinant AChE; [5]): 115 µM

O=c1[nH]c2ccccc2c(=O)n1-c1ccc(CN2CCCC2)cc1 [Compound 12]
activation at 200 µM (human α7 nAChR [1]; [3]): 0.3% | inhibition at 100 µM (human α7 nAChR [2]; [4]): 81.7% | AChE %Inhibition of supernatant (MeOH) (human recombinant AChE): 63.7 ± 4.4%

O=C(Nc1ccc(CN2CCCCC2)cc1)c1ccc(Cl)cc1 [Compound 11]
activation at 200 µM (human α7 nAChR [1]; [3]): 0.7% | inhibition at 100 µM (human α7 nAChR [2]; [4]): 73.3% | AChE %Inhibition of supernatant (MeOH) (human recombinant AChE): 100%

CC(=O)c1cccc(NC(=O)c2ccc(CN3CCCCCC3)cc2)c1 [Compound 18]
activation at 200 µM (human α7 nAChR [1]; [3]): 0.7% | inhibition at 100 µM (human α7 nAChR [2]; [4]): 68.7% | inhibition at 200 µM (human recombinant AChE): 91.6% | IC50 (human recombinant AChE; [5]): 17.9 µM

Cc1nnc2ncc(-c3ccc(C(C)N(C)C)cc3)cn12 (centres unmarked) [Ýmir-2 (7), N,N-dimethyl-1-(4-(3-methyl-[1,2,4]triazolo[4,3-a]pyrimidin-6-yl)phenyl)ethan-1-amine]
α7 nAChR %Activation (human α7 nAChR [1]; [3]): 7.0% and 7.0 ± 0.9% | activation at 200 µM (human α7 nAChR [1]): 7 ± 0.9% | inhibition at 200 µM (human recombinant AChE): 98.4% | IC50 (human recombinant AChE; [5]): 2.58 µM
